Reference: US20080009418A1, “Selective Inhibitors” (Alchemia LTD., priority 2004, published 2008)

How the values were obtained:
[1] = molecular target: T1, Human neurokinin (NK1) (Homo sapiens, UniProt P25103); test: Radioligand binding, human neurokinin NK1 membranes, filtration, [125I]-Substance P; conditions: compound at 10 μM; [125I]-Substance P
T1 construct: purchased Perkin Elmer Biosignal
Procedure, shortened: (§1)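 Percent inhibition of radioligand binding measured on recombinant human membranes: NK1 with [125I]-Substance P, KOP with [3H]-Diprenorphine. Incubation 1 h at room temperature, then harvest onto 0.3% PEI-soaked filters, cold Tris-HCl pH 7.4 washes and scintillation counting; non-specific binding from reference ligand wells.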

[2] = molecular target: T2, Human Melanocortin (MC3) (Homo sapiens, UniProt P41968); test: Radioligand binding, human melanocortin MC3 membranes, FlashPlate, [125I]-NDP-αMSH; conditions: compound at 10 μM; [125I]-NDP-αMSH
T2 construct: purchased Perkin Elmer Biosignal
Procedure, shortened: (§2)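 Cloned human receptor membranes were coated onto FlashPlate wells and incubated with radioligand and compound (added from a 0.5 mM DMSO daughter plate) for 1 hour at room temperature in the dark. Scintillation counting gave percent inhibition, with DMSO defining total and reference ligand defining non-specific binding.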

[3] = molecular target: T3, Human κ-Opioid (KOP) (Homo sapiens, UniProt P41145); test: Radioligand binding, human κ-opioid (KOP) membranes, filtration, [3H]-Diprenorphine; conditions: compound at 10 μM; [3H]-Diprenorphine
T3 construct: purchased Perkin Elmer Biosignal
Procedure, shortened: as §1

[4] = molecular target: T4, Human δ-opioid (DOP) (Homo sapiens, UniProt P41143); test: Radioligand binding, human δ-opioid (DOP) membranes, FlashPlate, [3H]-Bremazocine; conditions: compound at 10 μM; [3H]-Bremazocine
T4 construct: purchased Perkin Elmer Biosignal
Procedure, shortened: as §2

[5] = molecular target: T5, Human melanocortin (MC5) (Homo sapiens, UniProt P33032); test: Radioligand binding, human melanocortin MC5 membranes, FlashPlate, [125I]-NDP-αMSH; conditions: compound at 10 μM; [125I]-NDP-αMSH
T5 construct: purchased Perkin Elmer Biosignal
Procedure, shortened: as §2

[6] = molecular target: T6, Human opioid (ORL1) (Homo sapiens, UniProt P41146); test: Radioligand binding, human opioid ORL1 membranes, FlashPlate, [125I]-Nociceptin; conditions: compound at 10 μM; [125I]-Nociceptin
T6 construct: purchased Perkin Elmer Biosignal
Procedure, shortened: as §2

[7] = molecular target: T7, Human μ-opioid (MOP) (Homo sapiens, UniProt P35372); test: Radioligand binding, human μ-opioid (MOP) membranes, FlashPlate, [3H]-Naloxone; conditions: compound at 10 μM; [3H]-Naloxone
T7 construct: purchased Perkin Elmer Biosignal
Procedure, shortened: as §2

[8] = molecular target: T8, Human neuropeptide Y (NPY-Y1) (Homo sapiens, UniProt P25929); test: Radioligand binding, human neuropeptide Y NPY-Y1 membranes, FlashPlate, [125I]-PYY; conditions: compound at 10 μM; [125I]-PYY
T8 construct: purchased Perkin Elmer Biosignal
T8 sequence (P25929 1-384): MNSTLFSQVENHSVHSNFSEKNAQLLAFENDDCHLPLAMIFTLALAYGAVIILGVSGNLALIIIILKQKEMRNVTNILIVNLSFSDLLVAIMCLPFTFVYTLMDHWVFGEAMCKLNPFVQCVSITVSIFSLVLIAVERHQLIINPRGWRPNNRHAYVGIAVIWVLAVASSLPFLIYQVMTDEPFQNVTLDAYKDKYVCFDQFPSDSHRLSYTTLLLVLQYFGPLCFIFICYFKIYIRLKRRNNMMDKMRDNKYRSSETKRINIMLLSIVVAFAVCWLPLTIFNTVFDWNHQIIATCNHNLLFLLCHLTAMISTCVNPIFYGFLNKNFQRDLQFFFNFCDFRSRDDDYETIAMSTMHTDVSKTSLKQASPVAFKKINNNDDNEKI
Procedure, shortened: as §2

[9] = molecular target: T9, Human melanin-concentrating hormone (MCH1) (Homo sapiens, UniProt Q99705); test: Radioligand binding, human melanin-concentrating hormone MCH1 membranes, FlashPlate, [125I]-S36057; conditions: compound at 10 μM; [125I]-S36057
T9 construct: purchased Perkin Elmer Biosignal
Procedure, shortened: as §2

[10] = molecular target: T10, Mouse urotensin (mUR2) (Mus musculus, UniProt Q8VIH9); test: Radioligand binding, mouse urotensin mUR2 membranes, FlashPlate, [125I]-Urotensin II; conditions: compound at 10 μM; [125I]-Urotensin II
T10 construct: purchased Perkin Elmer Biosignal
T10 sequence (Q8VIH9 1-385): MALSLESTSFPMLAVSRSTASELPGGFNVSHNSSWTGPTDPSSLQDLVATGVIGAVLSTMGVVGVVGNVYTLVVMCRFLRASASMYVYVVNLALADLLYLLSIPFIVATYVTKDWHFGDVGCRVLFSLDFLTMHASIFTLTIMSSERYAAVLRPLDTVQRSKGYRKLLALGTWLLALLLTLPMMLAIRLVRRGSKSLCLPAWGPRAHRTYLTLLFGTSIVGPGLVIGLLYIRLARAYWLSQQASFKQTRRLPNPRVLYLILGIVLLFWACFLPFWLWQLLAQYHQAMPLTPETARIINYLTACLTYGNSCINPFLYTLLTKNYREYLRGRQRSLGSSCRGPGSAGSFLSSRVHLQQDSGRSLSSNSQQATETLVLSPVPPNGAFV
Procedure, shortened: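 Cloned mouse urotensin (mUR2) receptor membranes from Perkin Elmer Biosignal were immobilized in FlashPlate microplates using a proprietary coating. Each well got 19.5 μl buffer, then 0.5 μl of DMSO, reference ligand, or compound. Adding 5 μl of [125I]-Urotensin II, diluted to 5× final concentration in binding buffer, started binding. Plates were sealed with TopSeal-A and incubated 1 hour at room temperature in the dark. Wells were counted for 30 seconds each on a TopCount after a 60-second delay, and percentage inhibition was calculated.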

[11] = molecular target: T11, Human Melanocortin (MC4) (Homo sapiens, UniProt P32245); test: Radioligand binding, human melanocortin MC4 membranes, FlashPlate, [125I]-NDP-αMSH; conditions: compound at 10 μM; [125I]-NDP-αMSH
T11 construct: purchased Perkin Elmer Biosignal
Procedure, shortened: as §2

T7 sequence (P35372 whole entry): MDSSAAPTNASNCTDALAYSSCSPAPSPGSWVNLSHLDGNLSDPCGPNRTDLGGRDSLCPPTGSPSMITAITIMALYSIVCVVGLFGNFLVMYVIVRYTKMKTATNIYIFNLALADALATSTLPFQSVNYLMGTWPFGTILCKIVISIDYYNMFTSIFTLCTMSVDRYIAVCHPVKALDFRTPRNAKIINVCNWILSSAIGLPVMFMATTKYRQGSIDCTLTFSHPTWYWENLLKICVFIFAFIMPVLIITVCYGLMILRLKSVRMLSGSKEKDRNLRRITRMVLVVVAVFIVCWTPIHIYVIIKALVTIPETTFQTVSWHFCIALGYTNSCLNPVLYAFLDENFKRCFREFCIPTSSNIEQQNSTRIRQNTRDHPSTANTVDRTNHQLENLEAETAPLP
T3 sequence (P41145 whole entry): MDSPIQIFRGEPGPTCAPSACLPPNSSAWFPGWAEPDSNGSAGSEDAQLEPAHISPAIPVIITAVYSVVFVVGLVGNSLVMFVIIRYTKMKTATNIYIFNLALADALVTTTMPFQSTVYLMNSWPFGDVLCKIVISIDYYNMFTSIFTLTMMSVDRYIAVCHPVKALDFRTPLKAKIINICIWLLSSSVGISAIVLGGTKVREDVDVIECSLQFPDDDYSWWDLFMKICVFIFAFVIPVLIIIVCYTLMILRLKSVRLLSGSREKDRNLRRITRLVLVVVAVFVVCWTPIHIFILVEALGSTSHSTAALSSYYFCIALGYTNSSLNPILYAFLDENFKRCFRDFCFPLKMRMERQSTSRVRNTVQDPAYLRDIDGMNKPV
T9 sequence (Q99705 whole entry): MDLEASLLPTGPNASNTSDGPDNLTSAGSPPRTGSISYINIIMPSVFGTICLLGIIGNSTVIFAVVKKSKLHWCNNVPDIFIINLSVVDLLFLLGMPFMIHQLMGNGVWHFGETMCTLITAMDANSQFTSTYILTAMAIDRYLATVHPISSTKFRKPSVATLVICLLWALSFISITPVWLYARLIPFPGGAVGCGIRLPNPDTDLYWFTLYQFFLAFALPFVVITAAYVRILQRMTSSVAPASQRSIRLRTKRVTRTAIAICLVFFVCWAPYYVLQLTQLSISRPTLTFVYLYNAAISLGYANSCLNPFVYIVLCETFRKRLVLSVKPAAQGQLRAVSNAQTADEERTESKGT
T5 sequence (P33032 whole entry): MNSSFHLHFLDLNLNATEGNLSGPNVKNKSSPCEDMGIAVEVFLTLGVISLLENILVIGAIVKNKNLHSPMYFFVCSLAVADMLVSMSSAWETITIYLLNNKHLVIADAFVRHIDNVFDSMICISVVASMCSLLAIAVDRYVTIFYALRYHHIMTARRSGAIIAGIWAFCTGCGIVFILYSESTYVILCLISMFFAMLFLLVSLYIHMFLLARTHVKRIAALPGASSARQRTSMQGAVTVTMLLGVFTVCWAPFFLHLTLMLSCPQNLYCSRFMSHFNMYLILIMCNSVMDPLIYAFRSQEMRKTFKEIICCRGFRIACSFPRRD
T4 sequence (P41143 whole entry): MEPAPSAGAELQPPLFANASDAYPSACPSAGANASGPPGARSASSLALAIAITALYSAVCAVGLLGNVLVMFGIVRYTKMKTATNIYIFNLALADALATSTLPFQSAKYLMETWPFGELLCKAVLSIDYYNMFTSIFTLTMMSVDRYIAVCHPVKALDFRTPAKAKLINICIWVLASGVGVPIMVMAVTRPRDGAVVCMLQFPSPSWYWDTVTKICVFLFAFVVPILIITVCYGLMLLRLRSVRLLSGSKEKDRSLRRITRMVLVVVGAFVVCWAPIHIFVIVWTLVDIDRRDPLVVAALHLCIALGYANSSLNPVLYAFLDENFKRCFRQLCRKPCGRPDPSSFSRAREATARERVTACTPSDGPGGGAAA
T1 sequence (P25103 whole entry): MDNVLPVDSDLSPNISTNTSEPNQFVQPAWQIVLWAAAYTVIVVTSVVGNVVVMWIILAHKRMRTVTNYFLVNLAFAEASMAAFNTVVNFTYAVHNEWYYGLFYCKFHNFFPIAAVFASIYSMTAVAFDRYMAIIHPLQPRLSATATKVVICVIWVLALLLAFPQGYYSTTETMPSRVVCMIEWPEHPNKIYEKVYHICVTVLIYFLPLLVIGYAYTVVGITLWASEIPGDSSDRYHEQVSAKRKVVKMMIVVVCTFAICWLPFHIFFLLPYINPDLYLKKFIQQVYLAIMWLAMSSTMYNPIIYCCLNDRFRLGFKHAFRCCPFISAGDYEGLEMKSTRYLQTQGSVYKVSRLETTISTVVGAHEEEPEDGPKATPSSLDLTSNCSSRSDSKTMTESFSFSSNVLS
T11 sequence (P32245 whole entry): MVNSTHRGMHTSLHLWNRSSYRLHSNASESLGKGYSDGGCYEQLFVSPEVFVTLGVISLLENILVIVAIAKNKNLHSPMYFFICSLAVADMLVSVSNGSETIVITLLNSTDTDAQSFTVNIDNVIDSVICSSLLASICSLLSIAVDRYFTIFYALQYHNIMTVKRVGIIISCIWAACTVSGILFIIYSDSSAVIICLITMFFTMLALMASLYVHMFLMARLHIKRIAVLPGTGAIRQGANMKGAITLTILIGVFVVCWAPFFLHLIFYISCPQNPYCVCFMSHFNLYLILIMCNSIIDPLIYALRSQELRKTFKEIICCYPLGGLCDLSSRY
T2 sequence (P41968 whole entry): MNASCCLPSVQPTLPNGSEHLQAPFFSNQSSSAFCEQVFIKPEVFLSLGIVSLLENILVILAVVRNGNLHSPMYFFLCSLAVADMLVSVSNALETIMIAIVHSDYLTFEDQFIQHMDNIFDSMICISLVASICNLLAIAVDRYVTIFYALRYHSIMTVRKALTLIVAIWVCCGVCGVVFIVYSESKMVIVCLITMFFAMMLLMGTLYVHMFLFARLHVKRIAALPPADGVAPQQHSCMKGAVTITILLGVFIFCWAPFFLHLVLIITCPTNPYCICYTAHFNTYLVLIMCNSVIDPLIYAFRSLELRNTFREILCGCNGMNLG
T6 sequence (P41146 whole entry): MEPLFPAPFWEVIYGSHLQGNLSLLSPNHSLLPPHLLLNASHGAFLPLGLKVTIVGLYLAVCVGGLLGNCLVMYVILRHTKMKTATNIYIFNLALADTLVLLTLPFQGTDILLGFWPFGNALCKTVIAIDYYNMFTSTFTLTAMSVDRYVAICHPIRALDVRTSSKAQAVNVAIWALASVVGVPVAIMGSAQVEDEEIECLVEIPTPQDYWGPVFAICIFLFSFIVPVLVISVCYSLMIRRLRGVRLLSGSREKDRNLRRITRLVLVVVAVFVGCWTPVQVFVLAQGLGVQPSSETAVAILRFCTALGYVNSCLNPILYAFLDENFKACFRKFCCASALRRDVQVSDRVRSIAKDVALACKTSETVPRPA

SMILES	A8: inhibition of radioligand binding, human neurokinin (NK1) [1]	A3: inhibition of radioligand binding, human melanocortin (MC3) [2]	A2: inhibition of radioligand binding, human κ-opioid (KOP) [3]	A1: inhibition of radioligand binding, human δ-opioid (DOP) [4]	A5: inhibition of radioligand binding, human melanocortin (MC5) [5]	A10: inhibition of radioligand binding, human opioid (ORL1) [6]	A7: inhibition of radioligand binding, human μ-opioid (MOP) [7]	A9: inhibition of radioligand binding, human neuropeptide Y (NPY-Y1) [8]	A6: inhibition of radioligand binding, human melanin-concentrating hormone (MCH1) [9]	A11: inhibition of radioligand binding, mouse urotensin (mUR2) [10]	A4: inhibition of radioligand binding, human melanocortin (MC4) [11]
CSC1OC(COCc2ccc3ccccc3c2)C(O)C(OCc2ccc3ccccc3c2)C1NC(=O)CNC(=N)N (stereo not shown) [compound 317]	+ (“+” indicates greater than 50% inhibition at 10 μM)	− (“−” indicates less than 50% inhibition at 10 μM)	− (“−” indicates less than 50% inhibition at 10 μM)	− (“−” indicates less than 50% inhibition at 10 μM)	+ (“+” indicates greater than 50% inhibition at 10 μM)	− (“−” indicates less than 50% inhibition at 10 μM)	− (“−” indicates less than 50% inhibition at 10 μM)	− (“−” indicates less than 50% inhibition at 10 μM)	− (“−” indicates less than 50% inhibition at 10 μM)	− (“−” indicates less than 50% inhibition at 10 μM)	− (“−” indicates less than 50% inhibition at 10 μM)
CSC1OC(COCc2ccc3ccccc3c2)C(O)C(OCc2ccc3ccccc3c2)C1NC(=O)CCN (stereo not shown) [compound 318]	+ (“+” indicates greater than 50% inhibition at 10 μM)	− (“−” indicates less than 50% inhibition at 10 μM)	− (“−” indicates less than 50% inhibition at 10 μM)	− (“−” indicates less than 50% inhibition at 10 μM)	+ (“+” indicates greater than 50% inhibition at 10 μM)	− (“−” indicates less than 50% inhibition at 10 μM)	− (“−” indicates less than 50% inhibition at 10 μM)	− (“−” indicates less than 50% inhibition at 10 μM)	− (“−” indicates less than 50% inhibition at 10 μM)	− (“−” indicates less than 50% inhibition at 10 μM)	− (“−” indicates less than 50% inhibition at 10 μM)
CSC1OC(COCc2ccc3ccccc3c2)C(O)C(OCc2ccc3ccccc3c2)C1NC(=O)CCNC(=N)N (stereo not shown) [compound 319]	+ (“+” indicates greater than 50% inhibition at 10 μM)	− (“−” indicates less than 50% inhibition at 10 μM)	− (“−” indicates less than 50% inhibition at 10 μM)	− (“−” indicates less than 50% inhibition at 10 μM)	+ (“+” indicates greater than 50% inhibition at 10 μM)	− (“−” indicates less than 50% inhibition at 10 μM)	− (“−” indicates less than 50% inhibition at 10 μM)	− (“−” indicates less than 50% inhibition at 10 μM)	− (“−” indicates less than 50% inhibition at 10 μM)	− (“−” indicates less than 50% inhibition at 10 μM)	+ (“+” indicates greater than 50% inhibition at 10 μM)
CSC1OC(COCc2ccc3ccccc3c2)C(O)C(OCc2ccc3ccccc3c2)C1NC(=O)CCCN (stereo not shown) [compound 320]	+ (“+” indicates greater than 50% inhibition at 10 μM)	− (“−” indicates less than 50% inhibition at 10 μM)	− (“−” indicates less than 50% inhibition at 10 μM)	− (“−” indicates less than 50% inhibition at 10 μM)	+ (“+” indicates greater than 50% inhibition at 10 μM)	− (“−” indicates less than 50% inhibition at 10 μM)	− (“−” indicates less than 50% inhibition at 10 μM)	− (“−” indicates less than 50% inhibition at 10 μM)	− (“−” indicates less than 50% inhibition at 10 μM)	− (“−” indicates less than 50% inhibition at 10 μM)	− (“−” indicates less than 50% inhibition at 10 μM)
CSC1OC(COCc2ccc3ccccc3c2)C(O)C(OCc2ccc3ccccc3c2)C1NC(=O)CCCNC(=N)N (stereo not shown) [compound 321]	+ (“+” indicates greater than 50% inhibition at 10 μM)	+ (“+” indicates greater than 50% inhibition at 10 μM)	− (“−” indicates less than 50% inhibition at 10 μM)	− (“−” indicates less than 50% inhibition at 10 μM)	+ (“+” indicates greater than 50% inhibition at 10 μM)	− (“−” indicates less than 50% inhibition at 10 μM)	− (“−” indicates less than 50% inhibition at 10 μM)	− (“−” indicates less than 50% inhibition at 10 μM)	+ (“+” indicates greater than 50% inhibition at 10 μM)	− (“−” indicates less than 50% inhibition at 10 μM)	+ (“+” indicates greater than 50% inhibition at 10 μM)
